Structures are written as SMILES.

For one test, the target named is T1, human FPR2 (Homo sapiens, UniProt P25090).
T1 sequence (P25090 1-351): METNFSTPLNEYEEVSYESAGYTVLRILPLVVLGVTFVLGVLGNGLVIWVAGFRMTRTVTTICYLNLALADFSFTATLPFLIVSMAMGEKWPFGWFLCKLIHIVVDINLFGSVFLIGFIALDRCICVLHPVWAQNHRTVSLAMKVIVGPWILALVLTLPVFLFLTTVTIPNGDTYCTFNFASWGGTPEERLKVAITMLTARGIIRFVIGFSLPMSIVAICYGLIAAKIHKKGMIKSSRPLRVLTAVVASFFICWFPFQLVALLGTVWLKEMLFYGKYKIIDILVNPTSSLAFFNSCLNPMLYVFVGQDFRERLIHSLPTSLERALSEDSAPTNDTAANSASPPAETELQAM
As to the kind of experiment: FPR2 cyclic adenosine monophosphate (cAMP) assay. Particulars: CHO cells overexpressing human FPR2; forskolin 5 μM; inhibition of cAMP production; HTRF; read-out: hFPR2 cAMP2 EC50. The class given is cell-based. The procedure, abridged: (§1)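 Gi-coupled activity is read as suppression of forskolin-stimulated cAMP (10 μM final for FPR1, 5 μM final for FPR2; IBMX 200 μM final) in recombinant CHO cells, 30 min incubation at rt, HTRF detection.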
In general terms: Cyclic AMP is a second messenger, typically raised through Gs and lowered through Gi signalling.

Another test has as its target T2, human FPR1 (Homo sapiens, UniProt P21462).
T2 sequence (P21462 1-350): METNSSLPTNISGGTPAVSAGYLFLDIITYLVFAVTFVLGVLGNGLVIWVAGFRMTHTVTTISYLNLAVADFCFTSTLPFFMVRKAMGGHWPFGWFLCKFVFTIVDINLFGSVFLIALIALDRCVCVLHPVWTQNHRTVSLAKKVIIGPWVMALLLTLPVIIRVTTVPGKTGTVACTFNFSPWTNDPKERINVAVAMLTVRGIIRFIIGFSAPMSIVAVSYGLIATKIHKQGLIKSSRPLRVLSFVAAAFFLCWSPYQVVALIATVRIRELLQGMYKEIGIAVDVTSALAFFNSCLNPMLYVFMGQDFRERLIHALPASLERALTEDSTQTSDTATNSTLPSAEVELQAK
The test can be described thus: FPR1 cyclic adenosine monophosphate (cAMP) assay. In kind it is cell-based. Particulars: CHO cells overexpressing human FPR1; forskolin 10 μM; inhibition of cAMP production; HTRF; read-out: hFPR1 cAMP2 EC50. In outline:
as §1

Consider `COc1cc(F)c(-c2c(NC(=O)c3ccc(OC(F)F)cc3)c(=O)n(-c3cc(OCC(C)O)cc(C)n3)n2C)c(F)c1` (centres unmarked) [Example 394, N-(5-(2,6-Difluoro-4-methoxyphenyl)-2-(4-(2-hydroxypropoxy)-6-methylpyridin-2-yl)-1-methyl-3-oxo-2,3-dihydro-1H-pyrazol-4-yl)-4-(difluoromethoxy)benzamide], for which the EC50 amounted to 5 nM on human FPR2 and 740 nM at human FPR1.

As to `COc1cc(F)c(-c2c(NC(=O)c3ccc(OC(F)F)cc3)c(=O)n(-c3cc(CO)cc(OCCO)n3)n2C)c(F)c1` [Example 336, N-(5-(2,6-Difluoro-4-methoxyphenyl)-2-(6-(2-hydroxyethoxy)-4-(hydroxymethyl)pyridin-2-yl)-1-methyl-3-oxo-2,3-dihydro-1H-pyrazol-4-yl)-4-(difluoromethoxy)benzamide], the EC50 on human FPR2 was 24 nM; on human FPR1, > 10000 nM.

Consider `Cn1c(-c2c(F)cc(Cl)cc2F)c(NC(=O)c2ccc(OC(F)(F)F)cc2)c(=O)n1-c1cccc(C(C)(C)O)n1` [Example 406, N-(5-(4-chloro-2,6-difluorophenyl)-2-(6-(2-hydroxypropan-2-yl)pyridin-2-yl)-1-methyl-3-oxo-2,3-dihydro-1H-pyrazol-4-yl)-4-(trifluoromethoxy)benzamide], for which the values for the EC50 on human FPR2 and on human FPR1 were 12 nM and 1600 nM, respectively.

Turning to `COCCN1CCN(c2cccc(-n3c(=O)c(NC(=O)c4ccc(OC(F)F)cc4)c(-c4c(F)cc(OC)cc4F)n3C)n2)CC1` [Example 212, N-[5-(2,6-difluoro-4-methoxyphenyl)-2-{6-[4-(2-methoxyethyl)piperazin-1-yl]pyridin-2-yl}-1-methyl-3-oxo-2,3-dihydro-1H-pyrazol-4-yl]-4-(difluoromethoxy)benzamide], the EC50 is 9 nM at human FPR2 and > 10000 nM at human FPR1.

For `COc1cc(F)c(-c2c(NC(=O)c3ccc(OC(F)F)cc3)c(=O)n(-c3cc(C)cc(C)c3)n2C)c(F)c1` [Example 109, N-[5-(2,6-difluoro-4-methoxyphenyl)-2-(3,5-dimethylphenyl)-1-methyl-3-oxo-2,3-dihydro-1H-pyrazol-4-yl]-4-(difluoromethoxy)benzamide], the EC50 was determined as 11 nM at human FPR2 and 8100 nM on human FPR1.

With `COc1cc(F)c(-c2c(NC(=O)c3ccc(OC(F)F)cc3)c(=O)n(-c3cccc(OCCO)n3)n2C)c(F)c1` [Example 333, N-(5-(2,6-Difluoro-4-methoxyphenyl)-2-(6-(2-hydroxyethoxy)pyridin-2-yl)-1-methyl-3-oxo-2,3-dihydro-1H-pyrazol-4-yl)-4-(difluoromethoxy)benzamide], the EC50 turned out to be 14 nM at human FPR2 and 1300 nM at human FPR1.

On to `COc1cc(F)c(-c2c(NC(=O)c3ccc(OC(F)F)cc3)c(=O)n(-c3nc(N4CCN(C)C(=O)C4)ccc3C(F)(F)F)n2C)c(F)c1` [Example 220, N-[5-(2,6-difluoro-4-methoxyphenyl)-1-methyl-2-[6-(4-methyl-3-oxopiperazin-1-yl)-3-(trifluoromethyl)pyridin-2-yl]-3-oxo-2,3-dihydro-1H-pyrazol-4-yl]-4-(difluoromethoxy)benzamide], for which the EC50 came to 2 nM on human FPR2 and 560 nM at human FPR1.

On to `COc1cc(F)c(-c2c(NC(=O)c3ccc(OC(F)F)cc3)c(=O)n(-c3nc(N4CC(C)(O)C4)ccc3Cl)n2C)c(F)c1` [Example 307, N-{2-[3-chloro-6-(3-hydroxy-3-methylazetidin-1-yl)pyridin-2-yl]-5-(2,6-difluoro-4-methoxyphenyl)-1-methyl-3-oxo-2,3-dihydro-1H-pyrazol-4-yl}-4-(difluoromethoxy)benzamide], for which the EC50 at human FPR2 was 5 nM; at human FPR1 it was > 10000 nM.

As to `COc1cc(OCC2(C)COC2)nc(-n2c(=O)c(NC(=O)c3ccc(OC(F)F)cc3)c(-c3c(F)cc(OC)cc3F)n2C)c1` [Example 344, N-(5-(2,6-Difluoro-4-methoxyphenyl)-2-(4-methoxy-6-((3-methyloxetan-3-yl)methoxy)pyridin-2-yl)-1-methyl-3-oxo-2,3-dihydro-1H-pyrazol-4-yl)-4-(difluoromethoxy)benzamide], the EC50 came out at 2 nM at human FPR2 and 2400 nM on human FPR1.

For the compound `COc1cc(F)c(-c2c(NC(=O)c3ccc(OC(F)F)cc3)c(=O)n(-c3cccc(N4CCCCC4=O)n3)n2C)c(F)c1` [Example 150, N-[5-(2,6-difluoro-4-methoxyphenyl)-1-methyl-3-oxo-2-[6-(2-oxopiperidin-1-yl)pyridin-2-yl]-2,3-dihydro-1H-pyrazol-4-yl]-4-(difluoromethoxy)benzamide], the values for the EC50 on human FPR2 and on human FPR1 were 13 nM and 1500 nM, respectively.

In the case of `COc1cc(OCC2(CO)COC2)nc(-n2c(=O)c(NC(=O)c3ccc(OC(F)F)cc3)c(-c3c(F)cc(OC)cc3F)n2C)c1` [Example 384, N-(5-(2,6-Difluoro-4-methoxyphenyl)-2-(6-((3-(hydroxymethyl)oxetan-3-yl)methoxy)-4-methoxypyridin-2-yl)-1-methyl-3-oxo-2,3-dihydro-1H-pyrazol-4-yl)-4-(difluoromethoxy)benzamide], the concentration giving a half-maximal response (EC50) on human FPR2 is 7 nM; at human FPR1, > 10000 nM.

With `COc1cc(F)c(-c2c(NC(=O)c3ccc(OC(F)F)cc3)c(=O)n(-c3ncccc3N3CC(C)(O)C3)n2C)c(F)c1` [Example 211, N-[5-(2,6-difluoro-4-methoxyphenyl)-2-[3-(3-hydroxy-3-methylazetidin-1-yl)pyridin-2-yl]-1-methyl-3-oxo-2,3-dihydro-1H-pyrazol-4-yl]-4-(difluoromethoxy)benzamide], the EC50 was 12 nM at human FPR2 and > 10000 nM on human FPR1.

`COc1cc(OCC(C)(C)O)nc(-n2c(=O)c(NC(=O)c3ccc(OC(F)F)cc3)c(-c3c(F)cc(OC)cc3F)n2C)c1` [Example 322]: the EC50 was 7 nM at human FPR2 and > 10000 nM on human FPR1.

On to `COc1cc(F)c(-c2c(NC(=O)c3ccc(OC(F)F)cc3)c(=O)n(-c3nc(N4CCN(C)CC4)ccc3C(F)(F)F)n2C)c(F)c1` [Example 135, N-[5-(2,6-difluoro-4-methoxyphenyl)-1-methyl-2-[6-(4-methylpiperazin-1-yl)-3-(trifluoromethyl)pyridin-2-yl]-3-oxo-2,3-dihydro-1H-pyrazol-4-yl]-4-(difluoromethoxy)benzamide], for which the EC50 on human FPR2 came out at 3 nM; at human FPR1, 2400 nM.

In the case of `COc1cc(F)c(-c2c(NC(=O)c3ccc(OC(F)(F)F)cc3)c(=O)n(-c3ccc(C4CC4)cn3)n2C)c(F)c1` [Example 52, N-[2-(5-cyclopropylpyridin-2-yl)-5-(2,6-difluoro-4-methoxyphenyl)-1-methyl-3-oxo-2,3-dihydro-1H-pyrazol-4-yl]-4-(trifluoromethoxy)benzamide], the EC50 at human FPR2 was 9 nM; on human FPR1, 190 nM.

In the case of `COc1cc(C2CCCNC2)nc(-n2c(=O)c(NC(=O)c3ccc(OC(F)F)cc3)c(-c3c(F)cc(OC)cc3F)n2C)c1` (centres unmarked) [Example 347, N-(5-(2,6-Difluoro-4-methoxyphenyl)-2-(4-methoxy-6-(piperidin-3-yl)pyridin-2-yl)-1-methyl-3-oxo-2,3-dihydro-1H-pyrazol-4-yl)-4-(difluoromethoxy)benzamide], the EC50 on human FPR2 is 4 nM; at human FPR1 it was > 10000 nM.

With `COc1cc(F)c(-c2c(NC(=O)c3ccc(OC(F)F)cc3)c(=O)n(-c3nc(Nc4ncn[nH]4)ccc3C(F)(F)F)n2C)c(F)c1` [Example 234, N-[5-(2,6-difluoro-4-methoxyphenyl)-1-methyl-3-oxo-2-{6-[(1H-1,2,4-triazol-5-yl)amino]-3-(trifluoromethyl)pyridin-2-yl}-2,3-dihydro-1H-pyrazol-4-yl]-4-(difluoromethoxy)benzamide], the EC50 at human FPR2 turned out to be 3 nM; on human FPR1, 2900 nM.

`COc1cc(F)c(-c2c(NC(=O)c3ccc(OC(F)F)cc3)c(=O)n(-c3nc(C(F)(F)F)ccc3N(C)CCO)n2C)c(F)c1` [Example 375, N-(5-(2,6-Difluoro-4-methoxyphenyl)-2-(3-((2-hydroxyethyl)(methyl)amino)-6-(trifluoromethyl)pyridin-2-yl)-1-methyl-3-oxo-2,3-dihydro-1H-pyrazol-4-yl)-4-(difluoromethoxy)benzamide]: the EC50 at human FPR2 is 3 nM; at human FPR1, > 10000 nM.

Consider `COc1cc(F)c(-c2c(NC(=O)c3ccc(Cl)cc3)c(=O)n(-c3ccc(C)cn3)n2C)c(F)c1` [Example 48, 4-chloro-N-[5-(2,6-difluoro-4-methoxyphenyl)-1-methyl-2-(5-methylpyridin-2-yl)-3-oxo-2,3-dihydro-1H-pyrazol-4-yl]benzamide], for which the EC50 is 43 nM at human FPR2 and > 10000 nM on human FPR1.

A word on the EC50: it is the concentration at which the effect is half-maximal.

The record behind these values is patent US12577206B2 (BRISTOL-MYERS SQUIBB COMPANY, priority 2020, dated 2026).
